Results from patent US11306122B2, “Compositions and methods of inhibiting the binding of plasma IgG autoantibodies to serotonin 2A receptor” (United States Government As Represented By The Department …, priority 2019, dated 2022).
Numbered stars: 1 amine (or outer) side, 2 acyl side, 3 side chain; on linkers, the order of the positions; unused ones are H or OH. Bridge positions count the residues as written; N and C are the ends. Square brackets hold non-standard residues; d marks the D form. Peptide text beside a SMILES is read from it. X1 = CC(=O)NC(C(=O)OC(C(C)C)C(N[*:1])C(=O)[*:2])C(O)C(C)C; PhLac = O=C(O)[CH](O)Cc1ccccc1; NMeT = CN[CH](C(=O)O)[CH](C)O; NMeA = CN[CH](C)C(=O)O; NMeDha = C=C(NC)C(=O)O

What was measured:
[1] = tested on: N2A mouse neuroblastoma cells; test: Acute N2A neurite retraction induced by schizophrenia plasma autoantibodies; assay type: cell-based; settings: for % AutoAB-induced neurite retraction: 20 nM Pt 1 schizophrenia AutoAB; for % of AutoAB-induced neurite retraction: 40 nM SCZ IgG (N = 2), alone 100 ± 0%; for effect on schizophrenia autoantibody-induced neurite retraction: M100907 two-hundred nanomolar, Y27632 ten micromolar, Y254890 one micromolar
Description: (§1) Methods: Plasma from five older adults with chronic schizophrenia and eight age-matched patients having another neuropsychiatric, immune or metabolic disorder was subjected to Protein-A affinity chromatography to obtain IgG autoantibodies. Mean neurite retraction (5 minutes) or cell survival (24 hours) was determined in mouse N2A neuroblastoma cells incubated with autoantibodies in the presence or absence of specific antagonists of the Gq/11/PLC/IP3R signaling pathway, Gi-coupled, beta-arrestin2-directed pathways, or LY379268.
Acute neurite retraction assay. Percent of basal neurite length in N2A cells expressing one or more proximally-located dendrite-like process was determined after interval exposure to test substances (Zimering M B, J Endocrinol Diabetes. 2018; 5(2): 10).
A twenty nanomolar concentration of protein-A eluate fraction of plasma from Pt 1 with schizophrenia was incubated with N2A cells in the presence or absence of the indicated concentration of each Gq/11, GPCR antagonist. Results are the mean+/−SD of two experiments.
A forty nanomolar concentration of plasma autoantibodies (AutoAB) from Pt 1 or Pt, schizophrenia, was incubated in the presence or absence of the indicated concentration of RhoA/Rho kinase (ROCK) inhibitor, or individual antagonists of the Gq11/PLC/IP3R signaling pathway. […]

[2] = tested on: mouse N2A neuroblastoma cells; test: Acute N2A neurite retraction induced by TBI patient 5-HT2A receptor autoantibodies; assay type: cell-based; settings: for effect on TBI autoantibody-induced acute neurite retraction: M100907 250-500 nM, Y27632 10 μM, other concentrations as in Table 17; for % of autoantibody Neurite Retraction from TBI patients: 60 nM IgG of representative TBI patient; for effect on neurite retraction in TBI patient autoantibodies, Example 4: 10 μM Y27632, 1 μM YM25489, 1 μM U73122, 50 μM 2-APB; for % of 5-HT2A receptor Autoantibody Neurite Retraction: 60 nM TBI autoantibodies (alone 100%)
Description: Acute neurite retraction. Mouse N2A neuroblastoma cells were maintained in Dulbecco's minimal essential medium with 10% fetal calf serum. […] Neurite retraction represents average neurite length-shortening after five minutes exposure to TBI (5-HT2A receptor) autoantibodies (60-100 nM) in the presence or absence of various G-protein coupled receptor (GPCR) or signaling pathway antagonists.
A 60 nanomolar concentration of the IgG autoantibodies (e.g., 5-HT2A receptor autoantibodies) from a representative TBI patient was incubated with N2A cells in the presence or absence of the indicated concentration of the selective GPCR antagonist.
A 60 nanomolar concentration of 5-HT2A receptor autoantibodies from TBI patients was incubated with N2A cells in the presence or absence of the indicated concentration of Gq11/PLC-gamma/IP3R antagonist or RhoA/Rho kinase pathway inhibitor.
Neurovascular 5-hydroxytryptamine (serotonin) 2A receptor (5-HT2AR) autoantibodies were previously reported to function as long-acting agonists in diabetic angiopathy and subsets of major depression, Parkinson's disease or dementia. The 5-HT2A receptor is highly expressed in specific brain regions underlying cognition, perception and mood regulation. Long-lasting 5-HT2A receptor activation by circulating autoantibodies might contribute to pathophysiology via central and peripheral mechanisms. Since the risk or incidence of Parkinson's disease, depression and dementia increase following traumatic brain injury (TBI), circulating neurotoxic autoantibodies (e.g., 5HT2AR) were tested, characterized and compared with autoantibodies from TBI patients vs. diabetic subsets with or without neurodegenerative disorders. Plasma IgG autoantibodies (e.g., 5-HT2AR autoantibodies) were obtained by protein-A affinity chromatography in ten male TBI patients mean age 64 years old.

N2A cells [3] = test: Neurite retraction in N2A cells induced by 5-HT2AR agonists (DOI, serotonin); assay type: cell-based, mouse
Source text: The mGlu2/3R agonist LY379268 was previously reported to cause positive allosteric modulation of the 5HT2AR protomer affinity at 5HT2AR/mGlu2R heteromers (González-Maeso J, et al., Nature. 2008; 452(7183):93-97).

[4] = tested on: N2A mouse neuroblastoma cells; test: N2A cell survival (MTT) promoted by schizophrenia/psychosis plasma autoantibodies; assay type: cell-based; settings: LY379268 5 μM, pertussis toxin 100 ng/mL; for effect alone on N2A cell survival: without autoantibodies; for effect on autoantibody-induced N2A pro-survival/proliferation (words): M100907 500 nM, LY294002 20 μM, 24 hours
Description: as §1
N2A cell survival. MTT assay was performed 24 hours after incubation with test substances (Zimering M B, J Endocrinol Diabetes. 2018; 5(2): 10).
Serotonin 2A receptor activation leads to f3-arrestin-2-mediated desensitization and receptor internalization. However, β-arrestin-2 can also couple with diverse signaling pathways leading to enhanced cell proliferation and/or survival promotion.

N2A cells [5] = test: N2A cell loss (MTT) induced by TBI patient autoantibodies; assay type: cell-based, mouse; settings: M100907 250 nM (eight of eight patients); prazosin 850 nM (n=5); one-fiftieth dilution; 24 hours
Description: Cell survival was determined with MTT assay.
Mouse neuroblastoma cell loss. N2A cell loss was quantified using an MTT (3-(4,5-dimethylthiazol-2-yl)-2,5-diphenyltetrazolium bromide) tetrazolium reduction assay after overnight incubation with autoantibodies from TBI patients (Zimering M B, Endocrinol Diabetes Metab J. 2019 August; 3(4) pii: 118. Epub 2019 Aug. 14).

[6] = tested on: mouse N2A neuroblastoma cells; test: Acute N2A neurite retraction induced by diabetic pathologies' IgG autoantibodies; assay type: cell-based; settings: for Mean acute N2a neurite retraction (%): Pt 1 IgG one-fortieth dilution + 20 μg/mL peptide, IgG alone 100 + 0%; for effect on Patient 1 IgG autoantibody-induced N2A neurite retraction: short peptides at 20 μg/mL, pre-incubated 5 minutes, Q..N-18 dose series
Description: Methods: Plasma or serum from fifty-six older adults with (n=49) or without (n=7) type 2 diabetes was subjected to Protein-A affinity chromatography to obtain IgG autoantibodies. Binding to a synthetic 18-meric linear synthetic peptide (SEQ ID NO: 1) corresponding to the second extracellular loop of the 5-hydroxytryptamine 2A receptor was tested in a 1/40th or higher dilution of the protein-A eluates. Mean acute neurite retraction (5 minutes) or cell survival (16-24 hours) was determined in mouse N2A neuroblastoma cells incubated with IgG autoantibodies in the presence or absence of three short, linear overlapping peptides comprising the second extracellular loop of the human 5-hydroxytryptamine 2A receptor (SEQ ID NOs: 2, 3 and 4).
N2A Acute Neurite Retraction assay. Acute neurite retraction assay was performed as described in Hu G, et al. Diabetes Care 2007; 30(4): 842-847.
Epitope mapping of region within 5-HT2A receptor, linear synthetic 5-HT2A receptor peptide targeted by autoantibodies. Next an epitope analysis was performed to determine the subregion within the 5-HT2A receptor second extracellular domain that binds to the type 2 diabetes pathologies' autoantibodies. Three overlapping short peptides were synthesized (SEQ ID NOs: 2, 3, and 4). N2a cells expressing neurites were pre-incubated with each of the peptides separately (for 5 minutes) prior to the addition of Patient 1, […] hypertension IgG autoantibodies to determine which of the three peptides could compete for binding to the test diabetic pathologies' autoantibodies causing inhibition of IgG autoantibody-induced neurite retraction.
The indicated concentration of the Q . . . […] Acute N2A neurite retraction was assessed after 5 minutes.

[7] = Patient 1 DM refractory hypertension autoantibody, one sixtieth dilution, 5 minutes, 0 μg/mL peptide: 90 + 5%

COc1ccccc1Oc1c(NS(=O)(=O)c2ccc(C(C)(C)C)cc2)nc(-c2ncccn2)nc1OCCO [Bosentan]
% AutoAB-induced neurite retraction ([1]; antagonist 10 μM): 94 ± 7%
effect on TBI autoantibody-induced acute neurite retraction [2]: little or no significant protective effect
% of autoantibody Neurite Retraction from TBI patients ([2]; antagonist 10 μM): 80%

COc1cc(CC(C)N)c(OC)cc1I (centres unmarked) [DOI, 1-[2,5-dimethoxy-4-iodophenyl]-2-aminopropane]
concentration of DOI needed to evoke 25-30% neurite inhibition (N2A cells [3]; in the absence of LY379268): 10 µM
concentration of DOI needed to evoke 25-30% neurite inhibition (N2A cells [3]; in the presence of (10 μM) LY379268): 5 µM
peak neurite retraction (N2A cells [3]; saturating concentration, 20 μM): 40%

O=C(c1ccc(F)cc1)C1CCN(CCn2c(=O)[nH]c3ccccc3c2=O)CC1 [Ketanserin]
% AutoAB-induced neurite retraction ([1]; antagonist 500 nM): 43 ± 11%
effect on TBI autoantibody-induced acute neurite retraction [2]: substantially blocked
% of autoantibody Neurite Retraction from TBI patients ([2]; antagonist 1 μM): 26%
% of autoantibody Neurite Retraction from TBI patients ([2]; antagonist 2 μM): 18%

N[C@@]1(C(=O)O)CO[C@H]2[C@H](C(=O)O)[C@H]21 [LY379268]
mean level of neurite retraction in the presence of LY379268 ([1]; 10 μM LY379268, n=12, IgG alone 52±7%): 74±10%
effect alone on neurite retraction ([1]; 5-101.1M concentrations (so in the source), without autoantibodies): no effect
Mean N2A neurite retraction, Pt IgG + LY379268 ([1]; 7.5-10 μM LY379268, mean [IgG] 17 ± 6 nM, N = 12 patients, five minutes, Pt IgG alone 52 ± 7%): 74 ±10%^∧
IgG autoantibody concentration giving 50% inhibition of N2A neurite outgrowth in the presence of LY379268 ([1]; 10 micromolar LY379268, Pt 1 SCZ IgG, without LY379268: one microgram per milliliter (~7 nM)): ~0.5 microgram per milliliter
IgG autoantibody concentration giving 50% inhibition of N2A neurite outgrowth in the presence of LY379268, molar ([1]; 10 micromolar LY379268, Pt 1 SCZ IgG, without LY379268 ~7 nM): 3.5 nM
effect alone on N2A cell survival [4]: no effect
effect on autoantibody-induced N2A pro-survival/proliferation (words) [4]: significantly blocked

CCCCc1nc(Cl)c(CO)n1Cc1ccc(-c2ccccc2-c2nn[nH]n2)cc1 [Losartan]
% AutoAB-induced neurite retraction ([1]; antagonist 10 μM): 72 ± 8%

NCCOB(c1ccccc1)c1ccccc1 [Peptide 2-APB]
% of AutoAB-induced neurite retraction ([1]; inhibitor 50 μM): 17 ± 1.9%
effect on neurite retraction in TBI patient autoantibodies, Example 4 [2]: significantly blocked
% of 5-HT2A receptor Autoantibody Neurite Retraction ([2]; inhibitor 25 μM): 0%

COc1ccc2c(c1)CC[C@@H]1[C@@H]2CC[C@]2(C)[C@@H](NCCCCCCN3C(=O)C=CC3=O)CC[C@@H]12 [Peptide U73122]
% of AutoAB-induced neurite retraction ([1]; inhibitor 1 μM): 28 ± 15%
effect on neurite retraction in TBI patient autoantibodies, Example 4 [2]: significantly blocked
% of 5-HT2A receptor Autoantibody Neurite Retraction ([2]; inhibitor 1 μM): 10%

C[C@@H](N)[C@H]1CC[C@H](C(=O)Nc2ccncc2)CC1 [Peptide Y27632]
effect on schizophrenia autoantibody-induced neurite retraction [1]: completely prevented
% of AutoAB-induced neurite retraction ([1]; inhibitor 10 μM): 0 ± 0%

COc1cc2nc(N3CCN(C(=O)c4ccco4)CC3)nc(N)c2cc1OC [Prazosin]
effect on accelerated N2A cell death/loss by TBI autoantibodies (N2A cells [5]): much less protective effect
% AutoAB-induced neurite retraction ([1]; antagonist 1 μM): 72 ± 10%

Cc1cc(NC(=O)Nc2ccc3c(ccn3C)c2)sn1 [SB204741]
% AutoAB-induced neurite retraction ([1]; antagonist 1 μM): 100 ± 0%
effect on TBI autoantibody-induced acute neurite retraction [2]: no significant protective effect
% of autoantibody Neurite Retraction from TBI patients ([2]; antagonist 1 μM): 70%

C=C1C(=O)NC(C)C(=O)N(C)C(C)C(=O)NC(C(OC(=O)C(NC(C)=O)C(O)C(C)C)C(C)C)C(=O)N(C)C(C(C)OC)C(=O)OC(C)C(NC(C)=O)C(=O)OC(Cc2ccccc2)C(=O)N1C (centres unmarked) [YM254890] (Ac-T[PhLac][NMeDha]A[NMeA][X1][NMeT](Me); ester 1-C; configuration not given here)
effect on schizophrenia autoantibody-induced neurite retraction [1]: completely prevented
% of AutoAB-induced neurite retraction ([1]; inhibitor 1 μM): 0 ± 0%
effect on neurite retraction in TBI patient autoantibodies, Example 4 [2]: significantly blocked
% of 5-HT2A receptor Autoantibody Neurite Retraction ([2]; inhibitor 1 μM): 11%

Pertussis toxin
effect alone on N2A cell survival [4]: no effect
effect on autoantibody-induced N2A pro-survival/proliferation (words) [4]: significantly blocked
effect on autoantibody-induced N2A pro-survival/proliferation (words) ([4]; listed as pertussis toxin): blocked

QDDSKVF [Peptide 3, short overlapping peptide of 5-HT2A receptor second extracellular loop]
Mean acute N2a neurite retraction (%) ([6]; 5 minutes): 87 + 19%
effect on Patient 1 IgG autoantibody-induced N2A neurite retraction [6]: no significant effect

QDDSKVFKEGSCLLADDN [Peptide 1]
acute N2A neurite withdrawal, autoantibody + Q...N-18 at 3 μg/mL [6, 7]: 25 + 7%
acute N2A neurite withdrawal, autoantibody + Q...N-18 at 5 μg/mL [6, 7]: 0 + 0%
effect on Patient 1 IgG autoantibody-induced N2A neurite retraction [6]: dose-dependently inhibited
Half-maximal inhibition of autoantibody-induced acute neurite retraction ([6]; sixty nanomolar protein-A eluate of Patient 1 plasma): 2 µg/mL
IC50 ([6]; sixty nanomolar protein-A eluate of Patient 1 plasma, read-out: Half-maximal inhibition of autoantibody-induced acute neurite retraction, corresponding molar concentration): ~1000 nM

VFKEGSC [Peptide 4, short overlapping peptide of 5-HT2A receptor second extracellular loop]
Mean acute N2a neurite retraction (%) ([6]; 5 minutes): 88 + 13%
effect on Patient 1 IgG autoantibody-induced N2A neurite retraction [6]: no significant effect
